Laboratory results taken from patent EP1683521A1, “Peptide deformylase inhibitors, their use, and pharmaceutical compositions containing the same” (CENTRE NATIONAL DE LA RECHERCHE SCIENTIFIQUE (CNRS), priority 2005, dated 2006).
pIC50: −log10 of the molar value. Values after ≈ are worked out from the molar mass of the structure shown. Like-named read-outs stand apart in the source and are kept apart here.

Experiments:
EcPDF = target: T1, EcPDF (Escherichia coli, UniProt P0A6K3); assay: NMR titrations on peptide deformylase; format: binding; conditions: probed by NMR titrations
T1 construct: made in house
T1 sequence (P0A6K3 1-148): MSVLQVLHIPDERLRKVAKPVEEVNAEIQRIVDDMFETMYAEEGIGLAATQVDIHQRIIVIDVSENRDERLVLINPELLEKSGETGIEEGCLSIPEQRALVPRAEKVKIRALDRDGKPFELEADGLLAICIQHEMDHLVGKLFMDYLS

B. subtilis-MHY101 = assay: B. subtilis MIC; conditions: Bacillus subtilis
EcPDF1B = target: T2, EcPDF1B (Escherichia coli, UniProt P0A6K3); assay: PDF inhibition assay coupled to formate dehydrogenase (in vitro assay); format: biochemical
T2 construct: made in house
T2 sequence (P0A6K3 whole entry): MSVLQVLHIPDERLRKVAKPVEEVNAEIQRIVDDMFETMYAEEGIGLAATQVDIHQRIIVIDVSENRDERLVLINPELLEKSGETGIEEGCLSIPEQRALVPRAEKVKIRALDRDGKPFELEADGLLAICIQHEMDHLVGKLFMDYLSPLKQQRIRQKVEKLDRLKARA

E. coli-CAG1284 = assay: E. coli MIC, tolC mutant strain; conditions: Escherichia coli
B. subtilis-MHD101 = assay: B. subtilis MIC; conditions: Bacillus subtilis
E. coli-JM101Tr = assay: E. coli MIC, WT strain; conditions: Escherichia coli, WT strain JM101Tr
B. subtilis-M03482 = assay: B. subtilis MIC; conditions: Bacillus subtilis
AtPDF1A = target: T3, AtPDF1A (Arabidopsis thaliana, UniProt Q9FV53); assay: PDF inhibition assay coupled to formate dehydrogenase (in vitro assay); format: biochemical; conditions: mitochondrial PDF, 25 nM in assay; 10 % dimethyl sulfoxide; (TB) = tight binding
T3 construct: made in house
T3 sequence (Q9FV53 61-269): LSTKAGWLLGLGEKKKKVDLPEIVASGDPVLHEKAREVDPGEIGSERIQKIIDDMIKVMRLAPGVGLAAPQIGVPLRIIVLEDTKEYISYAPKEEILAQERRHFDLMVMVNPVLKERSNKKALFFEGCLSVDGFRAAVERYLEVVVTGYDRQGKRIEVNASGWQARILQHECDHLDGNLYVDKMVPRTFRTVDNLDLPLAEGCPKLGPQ

BsPDF2 = target: T4, BsPDF2 (Geobacillus stearothermophilus, UniProt O31410); assay: as above; format: biochemical, Bacillus stearothermophilus
T4 construct: made in house
T4 sequence (O31410 whole entry): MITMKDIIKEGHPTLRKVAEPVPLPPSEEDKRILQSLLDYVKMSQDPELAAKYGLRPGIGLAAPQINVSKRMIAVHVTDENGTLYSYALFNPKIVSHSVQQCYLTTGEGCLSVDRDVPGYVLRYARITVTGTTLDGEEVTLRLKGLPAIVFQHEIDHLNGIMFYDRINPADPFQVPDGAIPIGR

B. subtilis-168 = assay: B. subtilis MIC
[1] = system: Arabidopsis thaliana (ecotype WS4); assay: Growth inhibition of Arabidopsis thaliana; format: in vivo
[2] = WT context (strains 168 and MO3482)
[3] = nickel-bound enzyme, 40 nM in assay, 10 % dimethyl sulfoxide, (TB) = tight binding, read-out: IC50
[4] = nickel-bound enzyme, 20 nM in assay, 10 % dimethyl sulfoxide, (TB) = tight binding, read-out: IC50

Row | Compound | binding constant (EcPDF) | MIC (B. subtilis-MHY101) [µg/mL] | pIC50 (EcPDF1B) | MIC (E. coli-CAG1284) [µg/mL] | MIC (B. subtilis-MHD101) [µg/mL] | MIC (E. coli-JM101Tr) [µg/mL] | MIC (B. subtilis-M03482) [µg/mL] | pIC50 (AtPDF1A) | pIC50 (BsPDF2) | MIC (B. subtilis-168; Bacillus subtilis) [µg/mL] | MIC (B. subtilis-168; [2]) | pIC50 (EcPDF1B; [3]) | pIC50 (BsPDF2; [4]) | concentration at which growth inhibition is observed [1] | MIC (B. subtilis-168; strain 168 (WT context)) [µg/mL]
1 | Brc1ccc2[nH]ccc2c1 [5-bromoindole] | in the millimolar range | – | – | – | – | – | – | – | – | – | – | – | – | – | –
2 | CC(C)(C)OC(=O)NC(CC(=O)NO)Cc1ccccc1 (stereo not shown) [RAS270] | – | 8 (≈ 27.2 µM) | 7.36 | 32 (≈ 109 µM) | > 300 | > 300 | > 300 | 4.08 | 6.52 | > 300 | no antibiotic properties | – | – | – | –
3 | CC(C)(C)OC(=O)NC(Cc1ccccc1)CN(O)C=O (stereo not shown) [RAS358] | – | 9 (≈ 30.6 µM) | – | – | > 300 | – | > 300 | 3.82 | – | > 300 | no antibiotic properties | 7.30 | 6.40 | – | –
4 | O=C(Cc1cn(C(=O)OCc2ccccc2)c2ccc(Br)cc12)NO [Compound 2, 5-bromo-3-hydroxycarbamoylmethyl-indole-1-carboxylic acid benzyl ester] | – | 6 (≈ 14.9 µM) | – | – | 12 (≈ 29.8 µM) | – | 16 (≈ 39.7 µM) | 4.85 | – | 20 (≈ 49.6 µM) | – | 7.59 | > 7.57 | higher than 50 µM | 20 (≈ 49.6 µM)
